We go through 23 compounds from US8580825B2, “Oxadiazole inhibitors of leukotriene production” (Boehringer Ingelheim International GmbH, priority 2010, dated 2013).

For assay [1], the target named is T1, recombinant human FLAP protein (Homo sapiens, UniProt P20292).
T1 construct: made in house; host or cells: Sf9 insect cells (100,000xg membrane fraction used)
T1 sequence (P20292 1-161): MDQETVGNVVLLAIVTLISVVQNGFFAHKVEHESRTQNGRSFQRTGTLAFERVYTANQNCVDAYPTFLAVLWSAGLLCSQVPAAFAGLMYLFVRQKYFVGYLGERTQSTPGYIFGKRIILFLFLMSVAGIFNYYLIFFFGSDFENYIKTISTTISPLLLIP
Nature of the assay: FLAP binding assay (Scintillation Proximity Assay, displacement of [125I]L-691,831). Particulars: read-out: FLAP SPA IC50. Here is the method: Compounds are assessed for the ability to bind to FLAP in a binding assay that measures compound-specific displacement of an iodinated (^125I) FLAP inhibitor via a Scintillation Proximity Assay format (adapted from S. Charleson et al., Mol. Pharmacol., 1992, 41, 873-879).
Cell pellets produced from sf9 insect cells expressing recombinant human FLAP protein are resuspended in buffer A [15 mM Tris-HCl (pH 7.5), 2 mM MgCl2, 0.3 mM EDTA, 1 mM PMSF]. The cells are lysed with a Dounce homogenizer and the material is centrifuged at 10,000×g for 10 minutes. The supernatant is then collected and centrifuged at 100,000×g for 60 minutes. To prepare membrane protein for an assay, an aliquot of the 100,000×g pellet is resuspended in 1 ml of buffer A, Dounce homogenized, and finally subjected to polytron mixing (30 seconds). Membrane protein (25 μl, 5 μg) is mixed with WGA SPA beads (Amersham) and stirred for 1 h. […] (final concentrations: beads, 200 μg/well; protein, 5 μg/well; [^125I] probe, 0.08 nM/well (17 nCi/well). The plates are shaken for 2 h before reading on a Microbeta plate reader. Non-specific binding is determined by the addition of 10 μM cold L-691,831 compound.
For orientation: SPA uses beads or plates that emit light when radiolabelled molecules are held near them.

Assay [2] concerns synthesis of LTB4 in human whole blood. As to the kind of experiment: human whole blood LTB4 production inhibition assay. It is filed as cell-based. The note with it: calcimycin stimulated, read-out: hWB LTB4 IC50. Here is the method: Compounds are additionally tested in a human whole blood assay to determine their ability to inhibit the synthesis of LTB4 in a cellular system. Compounds are combined with heparinized human whole blood and incubated for 15 minutes at 37° C. Calcimycin (20 μM final, prepared in phosphate-buffered saline, pH 7.4) is then added and the mixture is incubated for another 30 minutes at 37° C. The samples are centrifuged for 5 min at low speed (1500×g) and the plasma layer is removed. Plasma LTB4 concentrations are then measured using an antibody-based homogenous time-resolved fluorescence method (CisBio, Bedford, Mass.).

For `COCCn1cc(-c2nc(C(C)(c3ccc(-c4cnc(N)nc4)nc3)C(C)C)no2)cn1` (stereo not shown) [Example 8, 5-[5-(2-{5-[1-(2-methoxyethyl)-1H-pyrazol-4-yl]-1,2,4-oxadiazol-3-yl}-3-methylbutan-2-yl)pyridin-2-yl]pyrimidin-2-amine], the IC50 was 6.3 nM in assay [1] and 68 nM in assay [2].

Turning to `CC(C)C(C)(c1ccc(-c2cnc(N)nc2)nc1)c1noc(-c2cnn(C3COC3)c2)n1` (stereo not shown) [Example 9, 5-[5-(3-methyl-2-{5-[1-(oxetan-3-yl)-1H-pyrazol-4-yl]-1,2,4-oxadiazol-3-yl}butan-2-yl)pyridin-2-yl]pyrimidin-2-amine], the IC50 in assay [1] was found to be 5.9 nM; in assay [2], 25 nM.

Turning to `COCCNc1cnc(-c2nc(C(C)(c3ccc(-c4cnc(N)nc4)nc3)C(C)C)no2)cn1` (stereo not shown) [Example 10, 5-{5-[2-(5-{5-[(2-methoxyethyl)amino]pyrazin-2-yl}-1,2,4-oxadiazol-3-yl)-3-methylbutan-2-yl]pyridin-2-yl}pyrimidin-2-amine], the IC50 is 4.9 nM in assay [1] and 60 nM in assay [2].

With `CC(C)C(C)(c1ccc(-c2cnc(N)nc2)nc1)c1noc(-c2cnn3cccnc23)n1` (stereo not shown) [Example 11, 5-(5-{3-methyl-2-[5-(pyrazolo[1,5-a]pyrimidin-3-yl)-1,2,4-oxadiazol-3-yl]butan-2-yl}pyridin-2-yl)pyrimidin-2-amine], the figures for the IC50 in assay [1] and in assay [2] were 2.9 nM and 40 nM, respectively.

On to `CCNc1cnc(-c2nc(C(C)(c3ccc(-c4cnc(N)nc4)nc3)C(C)C)no2)cn1` (stereo not shown) [Example 12, 5-[5-(2-{5-[5-(ethylamino)pyrazin-2-yl]-1,2,4-oxadiazol-3-yl}-3-methylbutan-2-yl)pyridin-2-yl]pyrimidin-2-amine], for which the figures for the IC50 in assay [1] and in assay [2] were 3.6 nM and 55 nM, respectively.

Regarding `CC(C)C(C)(c1ccc(-c2cnc(N)nc2)nc1)c1noc(-c2cnc(N3CCNCC3)cn2)n1` (stereo not shown) [Example 13, 5-[5-(3-methyl-2-{5-[5-(piperazin-1-yl)pyrazin-2-yl]-1,2,4-oxadiazol-3-yl}butan-2-yl)pyridin-2-yl]pyrimidin-2-amine], the IC50 amounted to 10.9 nM in assay [1] and 490 nM in assay [2].

For `CC(C)C(C)(c1ccc(-c2cnc(N)nc2)nc1)c1noc(-c2cnn(CC(F)F)c2)n1` (stereo not shown) [Example 14, 5-[5-(2-{5-[1-(2,2-difluoroethyl)-1H-pyrazol-4-yl]-1,2,4-oxadiazol-3-yl}-3-methylbutan-2-yl)pyridin-2-yl]pyrimidin-2-amine], the values for the IC50 in assay [1] and in assay [2] were 6.5 nM and 45 nM, respectively.

For `CNc1cnc(-c2nc(C(C)(c3ccc(-c4cnc(N)nc4)nc3)C(C)C)no2)cn1` (stereo not shown) [Example 15, 5-[5-(3-methyl-2-{5-[5-(methylamino)pyrazin-2-yl]-1,2,4-oxadiazol-3-yl}butan-2-yl)pyridin-2-yl]pyrimidin-2-amine], the IC50 in assay [1] was found to be 2.3 nM; in assay [2], 75 nM.

On to `CC(C)Nc1cnc(-c2nc(C(C)(c3ccc(-c4cnc(N)nc4)nc3)C(C)C)no2)cn1` (stereo not shown) [Example 16, 5-[5-(3-methyl-2-{5-[5-(propan-2-ylamino)pyrazin-2-yl]-1,2,4-oxadiazol-3-yl}butan-2-yl)pyridin-2-yl]pyrimidin-2-amine], for which the IC50 is 2.3 nM in assay [1] and 65 nM in assay [2].

Turning to `CC(C)C(C)(c1ccc(-c2cnc(N)nc2)nc1)c1noc(-c2cnn(CCF)c2)n1` (stereo not shown) [Example 17, 5-[5-(2-{5-[1-(2-fluoroethyl)-1H-pyrazol-4-yl]-1,2,4-oxadiazol-3-yl}-3-methylbutan-2-yl)pyridin-2-yl]pyrimidin-2-amine], the figures for the IC50 in assay [1] and in assay [2] were 4.5 nM and 53 nM, respectively.

For `COCCN(C)c1cnc(-c2nc(C(C)(c3ccc(-c4cnc(N)nc4)nc3)C(C)C)no2)cn1` (stereo not shown) [Example 18, 5-{5-[2-(5-{5-[(2-methoxyethyl)(methyl)amino]pyrazin-2-yl}-1,2,4-oxadiazol-3-yl)-3-methylbutan-2-yl]pyridin-2-yl}pyrimidin-2-amine], the IC50 in assay [1] worked out at 2.7 nM; in assay [2], 83 nM.

Regarding `CC(C)C(C)(c1ccc(-c2cnc(N)nc2)nc1)c1noc(-c2cnc(NC[C@@H](C)O)cn2)n1` (stereo partly drawn) [Example 19, (2R)-1-{[5-(3-{2-[6-(2-aminopyrimidin-5-yl)pyridin-3-yl]-3-methylbutan-2-yl}-1,2,4-oxadiazol-5-yl)pyrazin-2-yl]amino}propan-2-ol], the figures for the IC50 in assay [1] and in assay [2] were 4.8 nM and 140 nM, respectively.

As to `CC(C)C(C)(c1ccc(-c2cnc(N)nc2)nc1)c1noc(-c2cnc(NC(C)(C)CO)cn2)n1` (stereo not shown) [Example 20, 2-{[5-(3-{2-[6-(2-aminopyrimidin-5-yl)pyridin-3-yl]-3-methylbutan-2-yl}-1,2,4-oxadiazol-5-yl)pyrazin-2-yl]amino}-2-methylpropan-1-ol], the IC50 in assay [1] is 4 nM; in assay [2], 140 nM.

As for `CC(C)C(C)(c1ccc(-c2cnc(N)nc2)nc1)c1noc(-c2cn(C)cn2)n1` (stereo not shown) [Example 21, 5-(5-{3-methyl-2-[5-(1-methyl-1H-imidazol-4-yl)-1,2,4-oxadiazol-3-yl]butan-2-yl}pyridin-2-yl)pyrimidin-2-amine], the values for the IC50 in assay [1] and in assay [2] were 51.2 nM and 570 nM, respectively.

For `CC(C)C(C)(c1ccc(-c2cnc(N)nc2)nc1)c1noc(-c2cnc(NC[C@H](C)O)cn2)n1` (stereo partly drawn) [Example 22, (2S)-1-{[5-(3-{2-[6-(2-aminopyrimidin-5-yl)pyridin-3-yl]-3-methylbutan-2-yl}-1,2,4-oxadiazol-5-yl)pyrazin-2-yl]amino}propan-2-ol], the IC50 in assay [1] was determined as 3.6 nM; in assay [2], 140 nM.

Take `COCCn1cc(-c2nc([C@@](C)(c3ccc(-c4cnc(N)nc4)nc3)C(C)C)no2)cn1` [Example 23, 5-{5-[(2R)-2-{5-[1-(2-methoxyethyl)-1H-pyrazol-4-yl]-1,2,4-oxadiazol-3-yl}-3-methylbutan-2-yl]pyridin-2-yl}pyrimidin-2-amine]: the IC50 in assay [1] is 3.9 nM; in assay [2] it was 39 nM.

In the case of `COCCn1cc(-c2nc([C@](C)(c3ccc(-c4cnc(N)nc4)nc3)C(C)C)no2)cn1` [Example 24, 5-{5-[(2S)-2-{5-[1-(2-methoxyethyl)-1H-pyrazol-4-yl]-1,2,4-oxadiazol-3-yl}-3-methylbutan-2-yl]pyridin-2-yl}pyrimidin-2-amine], the results for the IC50 in assay [1] and in assay [2] were 170 nM and 990 nM, respectively.

`CC(C)C(C)(c1ccc(-c2cnc(N)nc2)nc1)c1noc(NCCO)n1` (stereo not shown) [Example 25, 2-[(3-{2-[6-(2-aminopyrimidin-5-yl)pyridin-3-yl]-3-methylbutan-2-yl}-1,2,4-oxadiazol-5-yl)amino]ethanol]: the IC50 in assay [1] is 520 nM; in assay [2] it was more than 5000 nM.

On to `CC(C)C(C)(c1ccc(-c2cnc(N)nc2)nc1)c1noc(N2CCNCC2)n1` (stereo not shown) [Example 26, 5-(5-{3-methyl-2-[5-(piperazin-1-yl)-1,2,4-oxadiazol-3-yl]butan-2-yl}pyridin-2-yl)pyrimidin-2-amine], for which the IC50 in assay [1] amounted to 400 nM; in assay [2], 3900 nM.

Turning to `COCCNc1ccc(-c2nc(C(C)(c3ccc(-c4cnc(N)nc4)nc3)C(C)C)no2)nn1` (stereo not shown) [Example 27, 6-(3-{2-[6-(2-aminopyrimidin-5-yl)pyridin-3-yl]-3-methylbutan-2-yl}-1,2,4-oxadiazol-5-yl)-N-(2-methoxyethyl)pyridazin-3-amine], the IC50 worked out at 7.5 nM in assay [1] and 71 nM in assay [2].

As for `CC(C)n1cc(-c2nc(C(C)(c3ccc(-c4cnc(N)nc4)nc3)C(C)C)no2)cn1` (stereo not shown) [Example 28, 5-[5-(3-methyl-2-{5-[1-(propan-2-yl)-1H-pyrazol-4-yl]-1,2,4-oxadiazol-3-yl}butan-2-yl)pyridin-2-yl]pyrimidin-2-amine], the IC50 in assay [1] came to 3.8 nM; in assay [2], 72 nM.

As for `CCn1cc(-c2nc(C(C)(c3ccc(-c4cnc(N)nc4)nc3)C(C)C)no2)cn1` (stereo not shown) [Example 29, 5-(5-{2-[5-(1-ethyl-1H-pyrazol-4-yl)-1,2,4-oxadiazol-3-yl]-3-methylbutan-2-yl}pyridin-2-yl)pyrimidin-2-amine], the IC50 turned out to be 4 nM in assay [1] and 40 nM in assay [2].

Regarding `COCCOCCn1cc(-c2nc(C(C)(c3ccc(-c4cnc(N)nc4)nc3)C(C)C)no2)cn1` (stereo not shown) [Example 30, 5-{5-[2-(5-{1-[2-(2-methoxyethoxy)ethyl]-1H-pyrazol-4-yl}-1,2,4-oxadiazol-3-yl)-3-methylbutan-2-yl]pyridin-2-yl}pyrimidin-2-amine], the IC50 in assay [1] was 12 nM; in assay [2], 160 nM.

Broadly, the IC50 is the midpoint of a concentration-inhibition curve.
